Here are results for 125 compounds from the SangsterLogP compilation.

Molecules are shown by their SMILES. Residues, ends and D or L forms follow the SMILES beside them. *: point of attachment. Boc = CC(C)(C)OC(=O)*

Details in the first data set: not given
As usually defined, the logP is the decadic logarithm of the partition coefficient of the neutral form, usually between octanol and water. Read a low logP as lower lipophilicity. In the case of `N#CC1CC1`, the logP turned out to be 0.29.
Same read-out and setting: in the case of `COC(=O)CC#N` it was -0.47; in that of `CC1NC(=O)C(CC(=O)N[C@@H](Cc2c[nH]c3ccccc23)C(=O)N[C@@H](Cc2ccccc2)C(=O)N(C)Cc2ccccc2)NC1=O` (stereo not given in full), 3.18.
The same measure, in the same setting: in the case of `CNCCN(C)C` it was -0.2; in that of `N#CCc1cccc(Oc2ccccc2)c1`, 3.03.
Same read-out and setting: in the case of `CCOC(=O)COC(=O)c1cc(Oc2ccc(C(F)(F)F)cc2Cl)ccc1[N+](=O)[O-]` it was 3.65; in that of `COc1ccc2cc([C@H](C)C(=O)OCC(=O)N(CCO)CCO)ccc2c1`, 1.7; in that of `Clc1cc(Cl)c2cc(Cl)ccc2c1`, 5.35.
Consider `CC(C)C(C#N)Cc1ccc(Cl)cc1` (stereo not given), for which the lipophilicity (logP) came out at 3.41.
With `CCCOC`, the logP came to 1.21.
Same read-out and setting: in the case of `C=CCn1cccn1` it was 0.35; in that of `CC(=O)N(C)Nc1ccccc1`, 1.31.
With `Cc1ccccc1CO`, the logP was 1.58.
On to `Cn1cccn1`, for which the logP came to 0.23.
On the same count and under the same terms, then `O=[N+]([O-])Nc1ccccn1`, with -1.02; and `CCCSP(=O)(OCC)SCCC`, with 3.59; and `Cc1ccc(C)[nH]1`, with 1.47.
As to `N#Cc1cccc(F)c1`, the log partition coefficient (logP) was 1.47.
The same measure, in the same setting: then `FC(F)(F)c1cccc(C(F)(F)F)c1`, with 3.83; and `Cc1nc(N(C)C)nc(OC(=O)N(C)C)c1C`, with 1.7.
Still for that read-out and setting: then `O=[N+]([O-])c1cc2[nH]c(C(F)(F)F)nc2cc1Cl`, with 3.21; and `CC(O)CNC(=O)C(F)(F)Cn1cnc([N+](=O)[O-])n1` (stereo not given), with -0.48.
Same read-out and setting: in the case of `COC(=O)c1cc(S(N)(=O)=O)ccc1SCCCO` it was 0.78; in that of `CN(C)c1ccc2c(c1)C(=O)N(O)C2=O`, 1.27; in that of `N#Cc1sc2c(=O)c3ccccc3c(=O)c=2sc1C#N`, 2.84.
`NC(=O)Nc1nc(-c2ccccc2)no1` registered a lipophilicity (logP) of 1.76.
Same read-out and setting: then `COc1ccc([N+](=O)[O-])cc1N`, with 1.47; and `CCOC(=O)C(C(=O)OCC)=C(C(=O)OCC)C(=O)OCC`, with 2.63.
`NNP(=O)(Oc1ccccc1)Oc1ccccc1` displayed a log partition coefficient (logP) of 1.51.
Turning to `N#Cc1ccncc1C#N`, the logP is 0.24.
Same read-out and setting: in the case of `CC(=O)CCC(C)=O` it was -0.27.
The same measure, in the same setting: in the case of `CC1CN1C1=CC(=O)C(N2CC2C)=CC1=O` (stereo not given) it was 1.07; in that of `CCn1cc(C)c(=O)[nH]c1=O`, -0.15; in that of `CS(=O)(=O)N1C(=O)c2ccc(N)cc2C1=O`, 0.8.
The same measure, in the same setting: in the case of `Cc1ccc(C(=O)COc2c(C(=O)c3ccc(Cl)c(C)c3Cl)c(C)nn2C)cc1` it was 4.69; in that of `CC12CC(O)C3C(CCC4(O)CC(O)CC(O)C34CO)C1(O)CCC2C1=CC(=O)OC1` (stereo not given), -0.02; in that of `CCCCNc1ccc(C(=O)OCCOCCOCCOCCOCCOCCOCCOCCOCCOC)cc1`, 2.45.
As to `CCCSP(=O)(OCC)Oc1cnn(-c2ccc(Cl)cc2)c1` (stereo not given), the logP came to 3.77.
The same measure, in the same setting: then `O=C(NCCCO)C(F)(F)Cn1ccnc1[N+](=O)[O-]`, with -0.64; and `CC(=O)N[C@@H](CC(C)C)C(=O)N[C@@H](CCCNC(=N)N)C(=O)N[C@@H](Cc1ccccc1)C(N)=O`, with -0.06.
With `O=[N+]([O-])c1ccc(/C=N/O)cc1`, the lipophilicity (logP) turned out to be 1.95.
The same measure, in the same setting: then `C[C@]12CCC(=O)C=C1CC[C@@H]1[C@@H]2CC[C@@]2(C)[C@H]1CC[C@]2(O)[C@H](O)CO`, with 2; and `NC(=O)OCCC1=C(N2CC2)C(=O)C(Br)=C(N2CC2)C1=O`, with 0.68.
The same measure, in the same setting: in the case of `CC(C(=O)O)c1ccc(N2C(=O)C3C4C=CCC3(C4)C2=O)cc1` (stereo not given) it was 2.31.
For `O=C1C=C(Br)C(=O)c2ccccc21`, the logP amounted to 2.44.
Compound `Cc1ccnc(=O)[nH]1` came in with a logP of -1.45.
Same read-out and setting: then `COC(=O)c1ccccc1N`, with 1.88; and `CNC(=S)N(C)C`, with 0.1.
On the same count and under the same terms, in the case of `Cc1c(COC(=O)[C@@H]2[C@H](/C=C(\Cl)C(F)(F)F)C2(C)C)cccc1-c1ccccc1` it was 6; in that of `CC(=O)Nc1ncc([N+](=O)[O-])s1`, 1.3.
The compound `CCCCOCN(C(=O)CCl)c1c(CC)cccc1CC` had a logP of 4.5.
Still for that read-out and setting: then `CN(C)c1ccc(C(=O)c2ccc(N(C)C)cc2)cc1`, with 3.87; and `Oc1ccc(CCNCCCCCCNCCc2ccccc2)cc1O`, with 1.88.
Same read-out and setting: then `CN(C)c1ccc2c(c1)C(=O)N(S(C)(=O)=O)C2=O`, with 1.65.
The same measure, in the same setting: then `COc1ccc([N+](=O)[O-])cn1`, with 1.55; and `C=CCSc1ccccc1`, with 3.51; and `CN(C)C(=O)c1ccccc1O`, with 0.44.
Take `NC(=O)Nc1cccc2cccnc12`: the logP came to 1.62.
The same measure, in the same setting: in the case of `CCCOP(OCCC)OCCC` it was 2.26; in that of `C1=COCCC1`, 0.69; in that of `COC(=O)C(F)(F)F`, 0.6.
The same measure, in the same setting: then `Ic1ccc(I)cc1`, with 4.11; and `O=C1C(F)=C(N2CC2)C(=O)C(N2CC2)=C1N1CC1`, with 0.14.
On the same count and under the same terms, then `CCCCOC(NC(=O)c1ccccc1O)C(Cl)(Cl)Cl` (stereo not given), with 4.45; and `CC(Cl)[N+](=O)[O-]` (stereo not given), with 1.1.
In turn, `O=C1C=C(NCCO)C(=O)c2ccccc21` showed a logP of 1.23.
Compound `CCCCC(NC(Cc1ccccc1)C(=O)N1CCC(OCOC)CC1)C(=O)NC(CC1CCCCC1)C(O)CC(C(=O)NCCNC(N)=NC#N)C(C)C` (stereo not given) registered a logP of 4.14.
Still for that read-out and setting: then `COc1ccc2[nH]c(N)nc2c1`, with 0.57.
On the same count and under the same terms, in the case of `O=C(OCCc1ccccc1)c1ccccc1` it was 4.01.
On the same count and under the same terms, then `CC(=O)Oc1ccc(N)cc1`, with 0.45; and `C[C@H](C(=O)O)c1ccc(N2Cc3ccccc3C2=O)cc1`, with 2.89.
The compound `Nc1ccccc1S(N)(=O)=O` returned a logP of 0.22.
In turn, `CCOC(=O)CC(=O)C=Cc1ccc2c(c1)OCO2` displayed a logP of 2.35.
On the same count and under the same terms, then `CC(C)[C@H](NC(=O)[C@H](Cc1ccccc1)NC(=O)OC(C)(C)C)C(=O)O`, with 2.88.
The compound `COCC(O)Cn1cc([N+](=O)[O-])nn1` (stereo not given) came in with a log partition coefficient (logP) of -0.36.
Still for that read-out and setting: then `Oc1ccc(Sc2ccc(O)cc2)cc1`, with 3.34; and `NC(=S)N1CCCCC1`, with 0.73.
Still for that read-out and setting: in the case of `N#CCc1ccc([N+](=O)[O-])cc1` it was 1.37; in that of `COC(=O)CCCC(=O)OC`, 0.62.
The same measure, in the same setting: then `CC(C)c1ccc(O)cc1`, with 2.9; and `CCCCn1cnc2c(NC(C)=O)ncnc21`, with 0.55; and `Cn1c(N)nc2cc(Cl)ccc21`, with 2.09.
As to `CCC(C)c1cc([N+](=O)[O-])cc(C(C)CC)c1O` (stereo not given), the lipophilicity (logP) is 4.8.
The same measure, in the same setting: in the case of `CC(=O)OC[C@H]1O[C@@H](n2ncc(=O)[nH]c2=O)[C@H](OC(C)=O)[C@@H]1OC(C)=O` it was -0.2; in that of `CC(C)(C)Br`, 1.15.

Still in this data set, the particulars now being: pH 1.0.
The logD is the decadic logarithm of the distribution of all forms, ionised or not, between an organic phase and buffer at a given pH. Low readings indicate a more hydrophilic compound, high ones a more lipophilic compound. Turning to `CC(C)CC#N`, the logD amounted to 1.07.
Take `N#CCC(=O)O`: the logD is -0.76.
On the same count and under the same terms, then `CC(C)(C)OC(=O)N[C@@H](Cc1ccccc1)C(=O)N[C@@H](Cc1ccc(O)cc1)C(=O)O` (Boc-Phe-Tyr-OH), with 2.79; and `O=C(O)C1CC1`, with 0.63.

Still in this data set, the particulars now being: pH 2.1.
In turn, `CCCCCCOc1ccc(S(N)(=O)=O)cc1[N+](=O)[O-]` registered a logD of 3.03.

Still in this data set, the particulars now being: pH 3.5.
As for `CC1=C(C(=O)O)N2C(=O)C(NC(=O)C(O)c3ccccc3)C2SC1` (stereo not given), the logD was 0.46.
`C1CCC(Cc2nnn[nH]2)CC1` came in with a pH-dependent lipophilicity (logD) of 1.59.

Still in this data set, the particulars now being: pH 4.0.
On to `CC(=NNc1ccc([N+](=O)[O-])cc1[N+](=O)[O-])C(F)(F)F`, for which the logD was 3.3.
On the same count and under the same terms, in the case of `O=[N+]([O-])c1cc(C(F)(F)F)cc([N+](=O)[O-])c1NN=C(C(F)(F)F)C(F)(F)F` it was 3.6.

Still in this data set, the particulars now being: pH 6.3.
Compound `CC(C)N(C)/N=N/c1ccc(C(N)=O)cc1` displayed a pH-dependent lipophilicity (logD) of 2.02.

The same data set, now with this note: pH 7.0.
`Cc1cn([C@@H]2O[C@H](CO)[C@@H](O)[C@H]2O)c(=O)nc1N` returned a log distribution coefficient (logD) of -2.01.
The same measure, in the same setting: then `Nc1nc(Cl)c2ncn([C@@H]3O[C@H](CO)C[C@@H]3F)c2n1`, with 0.28.

The data set is the same for the next values; noted with them: pH 7.4.
Take `Cn1c([N+](=O)[O-])cnc1COc1ccc(Cl)cc1`: the log distribution coefficient (logD) is 1.8.
Same read-out and setting: in the case of `Cn1c([N+](=O)[O-])cnc1C=NNC(N)=S` it was 0.65; in that of `Cc1cc(C)c2c(c1)C(c1ccccc1)=NCC(=O)N2`, 2.94; in that of `Nc1ccc(Sc2ccc(N)cc2)cc1`, 2.18.
Turning to `COC(=O)NCCn1c([N+](=O)[O-])cnc1C`, the log distribution coefficient (logD) is 0.02.
On the same count and under the same terms, in the case of `Cc1ncc([N+](=O)[O-])n1CCNC(=O)OC(C)C` it was 0.88; in that of `CCc1nc(C)c([N+](=O)[O-])[nH]1`, 0.76.
On the same count and under the same terms, in the case of `c1ccc(COc2cccc3cccnc23)cc1` it was 3.51; in that of `O=[N+]([O-])c1cn(Cc2ccccc2)cn1`, 1.36.
Same read-out and setting: then `CC(=O)Nc1cccc2cccnc12`, with 1.91; and `CCOc1cccc2cccnc12`, with 2.25.
`CSc1ncc([N+](=O)[O-])n1C` came in with a logD of 0.94.
The same measure, in the same setting: in the case of `CN1C(=O)CN=C(c2ccccc2C(F)(F)F)c2cc([N+](=O)[O-])ccc21` it was 2.45; in that of `Cc1cc(CCCCCCCOc2ccc(C3=NCCO3)cc2)on1`, 4.79; in that of `CNc1nc2c3cccnc3ccc2n1C`, 1.82.

Staying with this data set, now noted: pH 9.8.
The compound `c1ccc(C2CN3CCSC3=N2)cc1` (stereo not given) returned a log distribution coefficient (logD) of 1.84.

The same data set, now with this note: pH 11.0.
For `OCCCOc1cccc(CN2CCCCC2)c1`, the logD was 2.78.

Staying with this data set, now noted: pH 13.0.
Regarding `CC(C)(C)N(CC(O)COc1ccccc1)CC(O)COc1ccccc1` (stereo not given), the pH-dependent lipophilicity (logD) came out at 3.99.
Same read-out and setting: then `CCc1cc(Cc2cnc(N)nc2N)cc(CC)c1N`, with 1.82.
On the same count and under the same terms, in the case of `N=C(N)c1cccc([N+](=O)[O-])c1` it was 0.72; in that of `CN(C)CCNCCN`, -0.92.
Same read-out and setting: in the case of `CCNCCNCC` it was 0.21; in that of `C[C@@H]1CCC[C@H](C)N1`, 1.53.
For the compound `CCCNC`, the logD was 0.84.
On the same count and under the same terms, in the case of `CC1(C)CCCC(C)(C)N1` it was 2.15.
Same read-out and setting: in the case of `C#CCN` it was -0.43; in that of `CC(C)NC(C)(C)C`, 1.56.
On the same count and under the same terms, in the case of `NC(=O)COc1ccccc1Cc1nc(N)cc(N)n1` it was -0.34.
